From patent US5763405A, “Stabilized composition for oral administration of peptides” (Ferring B.V., priority 1994, dated 1998)

Conditions: pH 6.5
Method: A tube was introduced intranasally after local anaesthesia with xylocaine, and gastric juice was collected. Thereafter one standardized meal was given 1 h before sampling of duodenal and distal jejunum juice and another the next morning before the collection of distal ileal juice. After centrifugation the gastric and intestinal juices were frozen in aliquots of 1 ml and stored at -20° C. Degradation method. The peptide or peptide analog (10 μl of 10 mM peptide in 0.9% aqueous NaCl) was added to 190 μl of undiluted juice at 370° C. Aliquots of 25 μl were withdrawn at intervals and mixed with 100 μl acetone to stop the reaction. After centrifugation for 10 min at 10,000 g, 10 μl of the supernatiant was analyzed by reversed phase HPLC. Determination of peptide degradation. Analysis was carried out in a Varian 5000 HPLC analyzer equipped with a UV-detector (220 nm). Column Bondapak TM C18 (3.9×300 mm), eluant MeOH/0.025M NH4 Ac (isocratic conditions), flow rate 1 ml/min. Protein and pH determination. Protein: Bio-Rad protein assay. pH: Orion model SA720; pH-paper Merck (Darmstadt), range 4.0-7.0.

DDAVP degraded (to about 50%): about 50%
Compound: NC(=O)CC[C@@H]1NC(=O)[C@H](Cc2ccccc2)NC(=O)[C@H](Cc2ccc(O)cc2)NC(=O)CCSSC[C@@H](C(=O)N2CCC[C@H]2C(=O)N[C@H](CCCN=C(N)N)C(=O)NCC(N)=O)NC(=O)[C@H](CC(N)=O)NC1=O [DDAVP, Mpa--Tyr--Phe--Gln--Asn--Cys--Pro--D--Arg--Gly--GlyNH2 (SEQ ID NO: 3)]
